# Where two headings read alike, the source gives them in different places.
# Legend:
# [1] = tested on: Bleomycin-induced skin fibrosis; assay: Bleomycin-induced skin fibrosis, preventive dose-regimen (Example A): dermal thickness, hydroxyproline assay, αSMA immunohistochemistry; format: in vivo, mice; details: for Collagen content: hydroxyproline assay; for Myofibroblast count: αSMA positive cells
# Method: Local skin fibrosis was induced in 6-week-old, pathogen-free, female DBA/2 mice (Charles River, Sulzfeld, Germany) by repeated (every other day) subcutaneous injections of bleomycin (0,5 mg/ml in saline) in a defined area of the upper back. Control mice were injected in the same manner with saline only and served as reference. For all groups the injection volume was 100 µl. Concomitant to bleomycin treatment, the mice were treated orally with test drug or vehicle. Mice were treated a) with vehicle b) with 1 mg/kg example 1A, and c) with 3 mg/kg example 1A, twice a day via gavage for 21 days. After this 3 weeks treatment period, the animals were sacrificed and skin samples were obtained for analysis.
# (§1) The injected skin areas were fixed in 4% formalin and embedded in paraffin. Histological sections were stained with hematoxylin and eosin for the determination of dermal thickness. The dermal thickness was determined by measuring the largest distance between the epidermal-dermal junction and the dermal-subcutaneous fat junction. The measurements were performed by an examiner blinded to the treatment of the mice.
# (§2) To analyze the collagen content in skin samples, hydroxyproline assay was performed. After digestion of punch biopsies (Ø 3mm) in 6M HCl for three hours at 120°C, chloramine T (0.06 M) was added and samples were mixed and incubated for 20 min at room temperature. 3.15 M perchloric acid and 20 % p-dimethylaminobenzaldehyde were added and samples were incubated for additional 20 min at 60 °C. The absorbance was determined at 557 nm.
# (§3) The expression of α-smooth muscle actin (αSMA) was analyzed in paraffin embedded sections. After deparaffinization, samples were incubated with 3% bovine serum albumin followed by incubation with 3% H2O2. αSMA positive cells in mouse sections were detected by incubation with monoclonal anti-αSMA antibodies (clone 1A4, Sigma-Aldrich, Steinheim, Germany). Irrelevant isotype antibodies in the same concentration were used for control (Santa Cruz Biotechnology, Santa Cruz, CA, USA). Antibodies labeled with horseradish peroxidase (Dako, Hamburg, Germany) were used as secondary antibodies. The expression of the NICD and αSMA was visualized with DAB peroxidase substrate solution (Sigma-Aldrich). The number of myofibroblasts was counted from 4 different sections of lesional skin for each mouse by an examiner blinded to the treatment of the mice. Table 1: Effects of example 1A on development of Bleomycin-induced skin fibrosis.
# Fibrosis parameters expressed as x-fold change with respect to vehicle-treated control
# [2] = tested on: established Bleomycin-induced skin fibrosis; assay: Established bleomycin-induced skin fibrosis, therapeutic dose-regimen (Example B): dermal thickness, hydroxyproline assay, αSMA immunohistochemistry; format: in vivo, mice
# Method: as §1, §2, §3
# Local skin fibrosis was induced in 6-week-old, pathogen-free, female DBA/2 mice (Charles River, Sulzfeld, Germany) by repeated (every other day) subcutaneous injections of bleomycin (0,5 mg/ml in saline) in a defined area of the upper back. Control mice were injected in the same manner with saline only. For all groups the injection volume was 100 µl. The study comprises 4 arms with • a) mice receiving saline injection for 6 weeks (serving as reference) • b) mice receiving Bleomycin injection for 6 weeks • c) mice receiving Bleomycin injection for 6 weeks and additional treatment with example 1A (3 mg/kg) twice a day via gavage for the last 3 weeks • d) mice receiving the first 3 weeks bleomycin injections and the second 3 weeks saline injection.
# After 6 weeks the animals were sacrificed and skin samples were obtained for analysis.
# Histological analysis, hydroxyproline assay and immunhistochemistry for α-smooth muscel actin were performed as described in the Example 1A section. Table 3: Effects of example 1A (3mg/kg p.o.) on established Bleomycin-induced skin fibrosis Fibrosis parameters expressed as x-fold change with respect to vehicle-treated control (group a)
# [3] = tested on: established skin fibrosis in Tsk-mice; assay: Tight skin (Tsk-1) mouse model of systemic sclerosis (Example C): dermal thickness, hydroxyproline assay, αSMA immunohistochemistry; format: in vivo; details: for hypodermal thickness / Collagen content / Myofibroblast count: oral gavage, x-fold change with respect to vehicle-treated wild type mice; for hypodermal thickness: five weeks of treatment; for Collagen content: hydroxyproline assay; for Collagen content / Myofibroblast count: five weeks; for Myofibroblast count: αSMA positive cells
# Method: as §1, §2, §3
# In addition to the mouse model of bleomycin-induced dermal fibrosis, the tight-skin (Tsk-1) mouse model of systemic sclerosis was used to evaluate the anti-fibrotic potential of test drugs. Due to a dominant mutation in fibrillin-1, the phenotype of Tsk-1 is characterized by an increased hypodermal thickness. Genotyping of Tsk-1 mice was performed by PCR with the following primers: mutated fibrillin-1/ Tsk-1 forward primer: 5' - […] - 3', reverse primer: 5' - […] - 3'. Tsk-1 mice were treated daily with test drug or vehicle, respectively, by oral gavage. In addition, a group of corresponding wild type(pa/pa) mice was treated with vehicle. The treatment was started at an age of five weeks. After five weeks of treatment, mice were sacrificed by cervical dislocation and skin samples were obtained for analysis.
# Histological analysis, hydroxyproline assay and immunhistochemistry for α-smooth muscel actin were performed as described in the Example 1A section. Table 4: Effects of example 1A on established skin fibrosis in Tsk-mice
# Fibrosis parameters expressed as x-fold change with respect to vehicle-treated wild type mice
# [4] = Haemodynamic effects in conscious mice with telemetric implants (Example D); format: in vivo; details: dosages with antifibrotic properties
# Method: The haemodynamic effects of i.e. example (1A) were analyzed in conscious mice. Telemetric implants (DSI®) were used. Signals were received with RMC1-DSI® receiver plates, compiled and analyzied with PONEMAH® physiology platform software.
# The mice received either placebo (tylose), 0.3 mg/kg example 1A, 1mg/kg example 1A, 3mg/kg example 1A (Figure 1). The blood pressure and heart rate was monitored before and after application of placebo or the compounds.
# human dermal fibroblasts = assay: TGFbeta-induced collagen gene expression and hydroxyproline deposition in human dermal fibroblasts in vitro (Example E); format: cell-based
# Method: The effects of example 1A and vardenafil as standalone and in combination were analyzed in vitro in human dermal fibroblasts in vitro.
# [5] = bleomycin-induced SSc in mice, preventive dose-regimen
# [6] = Bleomycin + 1 mg/kg example 1A, twice a day via gavage for 21 days, x-fold change with respect to vehicle-treated control
# [7] = Bleomycin + 3mg/kg example 1A, twice a day via gavage for 21 days, x-fold change with respect to vehicle-treated control
# [8] = Bleomycin 6 weeks + 3 weeks example 1A (3mg/kg p.o., twice a day, last 3 weeks), x-fold change with respect to vehicle-treated control (group a)
# [9] = bleomycin-induced SSc in mice, therapeutic dose-regimen after established fibrosis
# [10] = TSK mice, established fibrosis before start of treatment
structure (smiles),measurement,setting,value
"Nc1nc(-c2nn(Cc3ccccc3F)c3ncccc23)ncc1C1CC1 [Example 1A, 3-(4-Amino-5-cyclopropylpyrimidin-2-yl)-1-(2-fluorobenzyl)-1H-pyrazolo[3,4-b]pyridine]",dermal thickness,"[1]; Bleomycin + 1 mg/kg example 1A, twice a day via gavage for 21 days, DBA/2 mice, x-fold change with respect to vehicle-treated control",1.37 x-fold change
same,dermal thickness,"[1]; Bleomycin + 3mg/kg example 1A, twice a day via gavage for 21 days, DBA/2 mice, x-fold change with respect to vehicle-treated control",1.19 x-fold change
same,dermal thickness,[1]; [5],significantly reduced
same,hydroxyproline content of the skin,[1]; [5],significantly reduced
same,number of dermal myofibroblasts,[1]; [5],significantly reduced
same,Collagen content,[1]; [6],1.19 x-fold change
same,Collagen content,[1]; [7],1.11 x-fold change
same,Myofibroblast count,[1]; [6],3.23 x-fold change
same,Myofibroblast count,[1]; [7],1.90 x-fold change
same,Myofibroblast count,[2]; [8],1.68 x-fold change
same,dermal thickness,[2]; [8],1.26 x-fold change
same,dermal thickness,[2]; [9],significantly reduced
same,hydroxyproline content of the skin,[2]; [9],significantly reduced
same,number of dermal myofibroblasts,[2]; [9],significantly reduced
same,dermal thickness,[3]; [10],significantly reduced
same,hydroxyproline content of the skin,[3]; [10],significantly reduced
same,number of dermal myofibroblasts,[3]; [10],significantly reduced
same,hypodermal thickness,[3]; Tsk-1 + 1 mg/kg example 1A,3.46 x-fold change
same,hypodermal thickness,[3]; Tsk-1 + 3mg/kg example 1A,2.88 x-fold change
same,Collagen content,[3]; Tsk-1 + 1 mg/kg example 1A,1.61 x-fold change
same,Collagen content,[3]; Tsk-1 + 3mg/kg example 1A,1.67 x-fold change
same,Myofibroblast count,[3]; Tsk-1 + 1 mg/kg example 1A,2.12 x-fold change
same,Myofibroblast count,[3]; Tsk-1 + 3mg/kg example 1A,1.70 x-fold change
same,heamodynamic profile (blood pressure and heart rate),[4],"did not or only moderately, change"
same,TGF-induced collagen gene expression,human dermal fibroblasts,significantly blocked
same,TGFbeta-induced Hydroxyproline (HP) deposition,human dermal fibroblasts,significantly blocked
same,TGF-induced collagen gene expression,human dermal fibroblasts; listed as example 1A,blocked

# From patent publication EP2594270A2, “The use of sGC stimulators, sGC activators, alone and combinations with PDE5 inhibitors for the treatment of systemic sclerosis (SSc)” (BIP Patents, priority 2011, dated 2013)
